System: HEK-293 mock cells
Test: Control in mock-transfected HEK-293 cells (cAMP, ERK phosphorylation)
Assay type: cell-based, human
Description: ERK phosphorylation was monitored by western blotting after treatment of cells with 10 μM of ligands at different times ranging from 2 to 60 minutes. […] The kinetics of ERK phosphorylation elicited by 5-CT, Serodolin and MOA-51 were very similar: activation was fast and transient, and reached a pick between 2 and 7 minutes after drug exposure. However, ERK phosphorylation-induced by Serodolin and MOA-51 was more protracted compared to 5-CT, the reference agonist.

Structure (SMILES): O=c1[nH]c2ccccc2n1CN1CCN(c2ccc(F)cc2)CC1 [Serodolin]
- ERK phosphorylation in HEK-293 mock cells: neither Serodolin, nor MOA-51 were able to induce ERK phosphorylation
